Source: US12281363B2, “Methods for detecting antiviral-drug resistant virus” (Secretary of State for Health and Social Care, priority 2018, dated 2025)
pIC50: −log10 of the molar value. Where two headings read alike, the source gives them in different places.

Tested on: HSV-2
Assay: Plaque reduction assay, HSV-2 clinical isolates on Vero cells
Assay type: cell-based
Settings: Human alphaherpesvirus 2, Vero
Excerpt: Viral isolates were used to infect a sub-confluent monolayer of Vero cells at a concentration of 75 or 50 plaque forming units (PFU) per well for HSV-1 and HSV-2, respectively. […] CMC medium typically used to create a semisolid interface and prevents indiscrimate viral spreading. Other materials (e.g. agar) may also be used to create this interface.
Cells were fixed with 10% formalin and stained with crystal violet before enumeration of the plaques (microscopic observation or use of fluorescent antibodies for detection is also suitable). The data obtained from these experiments were then expressed as percent inhibition of viral infectivity relative to the no drug control.
Definitions of phenotypic drug susceptibility classification as sensitive or resistant were as follows: ACV, <3 μM or >40 μM; PCV, <10 μM or >40 μM; CDV, <24 μM or >30 μM; FOS, <250 μM or >400 μM; and ACV, <6.5 μM or >40 μM; PCV, <38 μM or >40 μM; FOS, <250 μM or >400 μM for HSV-1 and HSV-2, respectively. Any IC50 values falling in between these sensitive and resistant cut-offs were reported as intermediate resistance.
The phenotype (i.e. reactivity to a drug) of the virus was characterised by the plaque reduction assay as described above. The present inventors have characterised the resistance-causing phenotype of a large number of TK and DNA pol mutations.

SMILES: O=C(O)P(=O)(O)O [Foscarnet, foscarnet]
- pIC50 (isolate HPG001, HSV-2 TK A125T (373G>A), read-out: Drug susceptibility (IC50 value)): 3.63
- pIC50 (isolate HPG001, HSV-2 TK A125T (373G>A), read-out: Drug susceptibility Foscarnet (FOS)): > 3.60
- pIC50 (isolate HPG001, HSV-2 pol H714R (2141A>G), read-out: Drug susceptibility (IC50 value)): 3.63
- pIC50 (isolate HPG001, HSV-2 pol H714R (2141A>G), read-out: Drug susceptibility Foscarnet (FOS)): > 3.60
- pIC50 (isolate HPG004, HSV-2 pol M494T (1481T>C), also pol S729N, read-out: Drug susceptibility (IC50 value)): 3.46
- pIC50 (isolate HPG004, HSV-2 pol M494T (1481T>C), also pol S729N, read-out: Drug susceptibility Foscarnet (FOS)): 3.40 to 3.60
- pIC50 (isolate HPG007, HSV-2 pol R628G (1882C>G), read-out: Drug susceptibility (IC50 value)): 3.11
- pIC50 (isolate HPG007, HSV-2 pol R628G (1882C>G), read-out: Drug susceptibility Foscarnet (FOS)): < 3.40
- pIC50 (isolate HPG017, HSV-2 TK Q186H (558G>T), read-out: Drug susceptibility (IC50 value)): 3.93
- pIC50 (isolate HPG017, HSV-2 TK Q186H (558G>T), read-out: Drug susceptibility Foscarnet (FOS)): > 3.60
- pIC50 (isolate HPG022, HSV-2 TK E213D (639A>C), read-out: Drug susceptibility (IC50 value)): 4.09
- pIC50 (isolate HPG022, HSV-2 TK E213D (639A>C), read-out: Drug susceptibility Foscarnet (FOS)): > 3.60
- pIC50 (isolate HPG022, HSV-2 pol D174Y (520G>T), read-out: Drug susceptibility (IC50 value)): 4.09
- pIC50 (isolate HPG022, HSV-2 pol D174Y (520G>T), read-out: Drug susceptibility Foscarnet (FOS)): > 3.60
- pIC50 (isolate HPG023, HSV-2 TK Q186H (558G>T), read-out: Drug susceptibility (IC50 value)): 4.11
- pIC50 (isolate HPG023, HSV-2 TK Q186H (558G>T), read-out: Drug susceptibility Foscarnet (FOS)): > 3.60
- pIC50 (isolate HPG024, HSV-2 TK E213D (639A>C), read-out: Drug susceptibility (IC50 value)): 4.05
- pIC50 (isolate HPG024, HSV-2 TK E213D (639A>C), read-out: Drug susceptibility Foscarnet (FOS)): > 3.60
- pIC50 (isolate HPG028, HSV-2 TK 98stop or A94fs (276delG, 278delG, 279delG, or 280delG), read-out: Drug susceptibility (IC50 value)): 4.01
- pIC50 (isolate HPG028, HSV-2 TK 98stop or A94fs (276delG, 278delG, 279delG, or 280delG), read-out: Drug susceptibility Foscarnet (FOS)): > 3.60
- pIC50 (isolate HPG028, HSV-2 pol E776Q (2326G>C), also TK deletion (G) nt 276-280, read-out: Drug susceptibility (IC50 value)): 4.01
- pIC50 (isolate HPG028, HSV-2 pol E776Q (2326G>C), also TK deletion (G) nt 276-280, read-out: Drug susceptibility Foscarnet (FOS)): > 3.60
- pIC50 (isolate HPG028, HSV-2 pol R775C, R775W (2323C>T; 2325C>G), also TK deletion (G) nt 276-280, read-out: Drug susceptibility (IC50 value)): 4.01
- pIC50 (isolate HPG028, HSV-2 pol R775C, R775W (2323C>T; 2325C>G), also TK deletion (G) nt 276-280, read-out: Drug susceptibility Foscarnet (FOS)): > 3.60
- pIC50 (isolate HPG030, HSV-2 TK Q90stop (268C>T), read-out: Drug susceptibility (IC50 value)): 4.03
- pIC50 (isolate HPG030, HSV-2 TK Q90stop (268C>T), read-out: Drug susceptibility Foscarnet (FOS)): > 3.60
- pIC50 (isolate HPG030, HSV-2 pol E761K (2281G>A), also TK Q90stop, read-out: Drug susceptibility (IC50 value)): 4.03
- pIC50 (isolate HPG030, HSV-2 pol E761K (2281G>A), also TK Q90stop, read-out: Drug susceptibility Foscarnet (FOS)): > 3.60
- pIC50 (isolate HPG034, HSV-2 TK L313S (938A>C), read-out: Drug susceptibility Foscarnet (FOS)): > 3.60
- pIC50 (isolate HPG036, HSV-2 TK E84K (250G>A), read-out: Drug susceptibility (IC50 value)): 4.10
- pIC50 (isolate HPG036, HSV-2 TK E84K (250G>A), read-out: Drug susceptibility Foscarnet (FOS)): > 3.60
- pIC50 (isolate HPG038, HSV-2 TK R34C (100C>T), read-out: Drug susceptibility (IC50 value)): 4.13
- pIC50 (isolate HPG038, HSV-2 TK R34C (100C>T), read-out: Drug susceptibility Foscarnet (FOS)): > 3.60
- pIC50 (isolate HPG044, HSV-2 TK M86L (256A>C), read-out: Drug susceptibility (IC50 value)): 4.13
- pIC50 (isolate HPG044, HSV-2 TK M86L (256A>C), read-out: Drug susceptibility Foscarnet (FOS)): > 3.60
- pIC50 (isolate HPG048, HSV-2 TK Q90stop (268C>T), read-out: Drug susceptibility (IC50 value)): 4.24
- pIC50 (isolate HPG048, HSV-2 TK Q90stop (268C>T), read-out: Drug susceptibility Foscarnet (FOS)): > 3.60
- pIC50 (isolate HPG048, HSV-2 pol E761K (2281G>A), also TK Q90stop, read-out: Drug susceptibility (IC50 value)): 4.24
- pIC50 (isolate HPG048, HSV-2 pol E761K (2281G>A), also TK Q90stop, read-out: Drug susceptibility Foscarnet (FOS)): > 3.60
- pIC50 (isolate HPG057, HSV-2 TK 98stop or A94fs (276delG, 278delG, 279delG, or 280delG), read-out: Drug susceptibility (IC50 value)): 4.01
- pIC50 (isolate HPG057, HSV-2 TK 98stop or A94fs (276delG, 278delG, 279delG, or 280delG), read-out: Drug susceptibility Foscarnet (FOS)): > 3.60
- pIC50 (isolate HPG058, HSV-2 TK 183stop or P154fs (458delC, 459delC, 460delC, or 461delC), read-out: Drug susceptibility (IC50 value)): 4.23
- pIC50 (isolate HPG058, HSV-2 TK 183stop or P154fs (458delC, 459delC, 460delC, or 461delC), read-out: Drug susceptibility Foscarnet (FOS)): > 3.60
- pIC50 (read-out: Drug susceptibility (IC50 value), isolate HPG034, HSV-2 TK L313S (938A>C)): 4.13
- pIC50 (read-out: Drug susceptibility (IC50 value), isolate HPG056, HSV-2 pol M447L (1339A>C)): 4.06
- pIC50 (read-out: Drug susceptibility Foscarnet (FOS), isolate HPG056, HSV-2 pol M447L (1339A>C)): > 3.60
